Assay results as given in article PMC6340882, “Targeting protein kinase CK2 and CDK4/6 pathways with a multi-kinase inhibitor ON108110 suppresses pro-survival signaling and growth in mantle cell lymphoma and T-acute lymphoblastic leukemia” (Oncotarget, 2018).
pIC50, pKd: −log10 of the molar value.

Experiments:
[1] = system: panel of solid tumor and leukemic cell lines; assay: Primary growth inhibition screen, MCLs and T-ALLs compared to other tumor types; assay type: cell-based, human; settings: from GI50 values of primary screen
Description: (§1) Cell lines were cultured in RPMI-1640 medium (Thermo Scientific) supplemented with 10% heat inactivated FBS and penicillin-streptomycin at 37°C under humidified conditions and 5% CO2. All cell lines tested negative for mycoplasma. […] Compounds were added 24 hrs post-plating at the indicated concentrations. Cell counts were determined from duplicate wells 96 hrs post-treatment using the Cell Titer Blue assay in conjunction with the GloMax plate reader (Promega).

[2] = biological target: CK2α1 (Homo sapiens, UniProt P68400); assay: In vitro kinase assay with recombinant protein (32P-ATP, filtermat); assay type: biochemical; settings: recombinant CK2α1, independent in vitro kinase assay, 20μM ATP
Chain of CK2α1 (P68400 whole entry): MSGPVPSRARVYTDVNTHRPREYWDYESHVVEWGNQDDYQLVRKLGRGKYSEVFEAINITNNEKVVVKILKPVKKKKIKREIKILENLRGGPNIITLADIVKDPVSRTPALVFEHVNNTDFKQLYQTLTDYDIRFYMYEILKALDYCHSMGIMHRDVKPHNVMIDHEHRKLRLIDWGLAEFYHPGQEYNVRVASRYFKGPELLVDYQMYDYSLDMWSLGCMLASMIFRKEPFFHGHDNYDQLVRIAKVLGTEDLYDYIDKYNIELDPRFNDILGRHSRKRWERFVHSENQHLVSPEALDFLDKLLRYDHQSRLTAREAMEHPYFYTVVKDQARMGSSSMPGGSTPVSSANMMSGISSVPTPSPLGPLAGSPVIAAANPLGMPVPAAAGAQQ
Description: (§2) (B) Structure of ON108110. (C) Calculation of IC50 values against CDK4 and CDK6 and (D) CK2α1 and CK2α2 by ON108110. Recombinant proteins were incubated with the indicated concentrations of ON108110 and subjected to in vitro kinase assays as described in the materials and methods section. Values obtained were plotted as a function of log drug concentration. IC50 values were determined by performing sigmoidal non-linear regression with a variable slope.
(§3) Recombinant CDK4/CYCLIN D1 or CK2α1 were mixed with their respective synthetic peptide substrates (10ng) and incubated with DMSO or increasing concentrations of ON108110 in 20μl kinase buffer [50mM Tris-HCl (pH 7.5), 10mM MgCl2, 1mM EGTA, 2mM DTT and 0.01% NP-40] for 30 min. at room temperature. Kinase reactions were carried out for 20 min at 30°C in the presence of 5μl of substrate-ATP mixture (1μg RB, 20μM ATP, 20μCi γ-^32P-ATP). […] The filtermat was air-dried, blocked with methanol for 2 minutes followed by three washes with 75mM phosphoric acid. The filtermat was then air-dried and analyzed using a phosphoimager.

[3] = biological target: CDK4 (Homo sapiens, UniProt P11802); assay: as above; assay type: biochemical; settings: recombinant CDK4, independent in vitro kinase assay, 20μM ATP
Chain of CDK4 (P11802 whole entry): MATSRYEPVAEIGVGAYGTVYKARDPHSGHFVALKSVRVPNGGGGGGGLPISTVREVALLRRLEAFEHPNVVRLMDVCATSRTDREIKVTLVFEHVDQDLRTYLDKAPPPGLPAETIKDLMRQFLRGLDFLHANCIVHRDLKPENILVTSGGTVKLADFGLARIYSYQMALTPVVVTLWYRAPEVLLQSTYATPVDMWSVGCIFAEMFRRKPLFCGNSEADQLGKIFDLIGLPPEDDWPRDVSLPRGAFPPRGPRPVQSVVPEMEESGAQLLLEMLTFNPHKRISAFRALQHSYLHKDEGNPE
Chain of CDK4 (P24385 whole entry partner): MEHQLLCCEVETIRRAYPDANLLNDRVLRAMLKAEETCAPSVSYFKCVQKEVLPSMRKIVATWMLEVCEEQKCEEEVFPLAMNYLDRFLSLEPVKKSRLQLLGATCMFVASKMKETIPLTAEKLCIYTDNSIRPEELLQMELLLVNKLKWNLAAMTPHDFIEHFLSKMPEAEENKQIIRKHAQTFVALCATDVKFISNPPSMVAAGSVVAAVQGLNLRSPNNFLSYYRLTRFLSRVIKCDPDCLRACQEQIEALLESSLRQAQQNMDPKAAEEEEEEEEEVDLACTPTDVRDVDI
Description: as §2, §3

[4] = biological target: CK2α2 (Homo sapiens, UniProt P19784); assay: as above; assay type: biochemical; settings: recombinant CK2α2, independent in vitro kinase assay, 20μM ATP
Chain of CK2α2 (P19784 whole entry): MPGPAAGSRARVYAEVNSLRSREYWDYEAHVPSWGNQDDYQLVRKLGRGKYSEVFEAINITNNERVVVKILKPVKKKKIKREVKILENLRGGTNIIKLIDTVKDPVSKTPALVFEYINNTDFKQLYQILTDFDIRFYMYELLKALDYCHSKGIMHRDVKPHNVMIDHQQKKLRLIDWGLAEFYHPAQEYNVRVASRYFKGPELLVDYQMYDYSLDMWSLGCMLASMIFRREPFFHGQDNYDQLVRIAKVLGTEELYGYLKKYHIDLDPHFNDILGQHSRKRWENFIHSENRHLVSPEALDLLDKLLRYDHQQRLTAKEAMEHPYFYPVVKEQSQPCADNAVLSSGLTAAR
Description: as §2, §3

[5] = biological target: T1, recombinant CK2α1 (Homo sapiens, UniProt P68400); assay: Microscale thermophoresis (MST); assay type: binding; settings: 16 concentrations 0.1nM-1000nM, average of 3 independent experiments
T1 construct: Amino acid residues 3-335 of CK2α1 were cloned using BamH1 and HindIII into pET28bsmt3-SUMO fusion vector; SUMO (N); made in house; host or cells: Escherichia coli BL21-DE3 (RIL)
T1 sequence (P68400 3-335): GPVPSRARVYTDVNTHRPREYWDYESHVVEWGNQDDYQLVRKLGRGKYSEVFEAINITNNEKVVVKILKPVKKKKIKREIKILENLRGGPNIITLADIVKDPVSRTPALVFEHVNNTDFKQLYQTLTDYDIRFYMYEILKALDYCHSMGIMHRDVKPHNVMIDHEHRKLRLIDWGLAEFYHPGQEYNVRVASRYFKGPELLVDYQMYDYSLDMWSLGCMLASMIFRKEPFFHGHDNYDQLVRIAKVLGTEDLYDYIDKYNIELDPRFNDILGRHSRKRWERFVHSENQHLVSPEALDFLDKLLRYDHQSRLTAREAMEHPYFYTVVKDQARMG
Description: Purified His6-CK2α1 (kinase domain) was labeled with red NT-647 cysteine-reactive dye according to the manufacturer (NanoTemper Technologies). A fixed quantity of NT-647-labeled CK2α1 (50nM) was incubated with the indicated concentrations of ON108110 in binding buffer (20 mM Tris-HCl, pH 7.5, 150 mM NaCl, 1 mM MgCl2, 0.1% Triton X-100, and 2% DMSO) at room temperature in the dark for 30 min. Samples were then loaded into hydrophilic capillaries (NanoTemper Technologies) and binding was measured using the Monolith NT.115 (NanoTemper Technologies). Binding data were analyzed using thermophoresis or hot/cold analysis, as previously described prior to normalization to either ΔFnorm[%(10^*(Fnorm(bound)-Fnorm(unbound)) or fraction bound (ΔFnorm[%]/amplitude). Dissociation constants (Kd) were calculated using built-in curve-fitting software provided by the manufacturer (NanoTemper Technologies).

[6] = system: CEM; assay: Growth inhibition (GI50), Cell Titer Blue; assay type: cell-based; settings: Homo sapiens, CCRF-CEM, Acute Lymphoblastic Leukemia, 96 hrs post-treatment
Description: as §1

[7] = system: RS-4-11; assay: Growth inhibition (GI50), Cell Titer Blue; assay type: cell-based; settings: Homo sapiens, RS4-11; RS-4-11, Acute Lymphoblastic Leukemia; 96 hrs post-treatment
Description: as §1

[8] = system: HEL; assay: Growth inhibition (GI50), Cell Titer Blue; assay type: cell-based; settings: Homo sapiens, Erythroleukemia, 96 hrs post-treatment
Description: as §1

[9] = system: CEM, HBL-2, RS4-11 and Granta-519 cells; assay: Apoptosis, Annexin V/DAPI staining; assay type: cell-based, human; settings: 0.5-2.0 μM, 24 hours post-treatment
Description: Figure 5 Modulation of cell cycle expression and induction of apoptosis in ON 108110-treated MCL and T-ALL cell lines (A) CEM and Granta-519 cells were treated with either DMSO or increasing concentrations of ON108110 (0.5-2.0μM) for 24 hours. Cell cycle analysis was performed using propidium iodide staining. (B) CEM, HBL-2, RS4-11 and Granta-519 cells were treated with either DMSO (vehicle) or increasing concentrations of ON108110 (0.5-2.0 μM) for 24 hours and stained with Annexin V/DAPI (C) Graphical representation of apoptosis induced as shown in B. (D) Granta-519 cells were treated with increasing concentrations of ON108110 for 24 hours. Caspase activation and viability were measured using the Caspase Glo 3/7 and Cell Titer Blue assay kits, respectively. […]
To determine cell cycle distribution, 70% ethanol fixed cells were washed with phosphate buffered saline (PBS), resuspended in PBS and incubated with RNase and propidium iodide at 37°C for 20 min. DNA content was analyzed on a FACS Calibur (BD Immunocytometry Systems) and the data analyzed using Flowjo software (Treestar). Annexin V staining was measured using the FITC Annexin V Apoptosis Detection Kit I (BD Biosciences) according to the instructions of the manufacturer except that DAPI was substituted at a concentration of […] to measure DNA content.

CC(=O)Oc1ccc(/C=C2\Sc3ccc(F)cc3NC2=O)cc1[N+](=O)[O-] [ON108110]
fold higher cytotoxicity against MCLs and T-ALLs compared to other tumor types [1]: 10-20 fold
pIC50 [2]: 8.52
pIC50 [3]: 8.22
pIC50 [4]: 8.70
pKd [5]: 8.60
GI50 [6]: 180 nM
GI50 [7]: 240 nM
GI50 [8]: 900 nM
frequency of apoptotic cells (Annexin V) [9]: concentration-dependent increase in the frequency of apoptotic cells
